Assay results: patent US20220194936A1, “CRYSTALLINE FORMS OF N-(5-(5-((1R,2S)-2-FLUOROCYCLOPROPYL)-1,2,4-OXADIAZOL-3-YL)-2-METHYLPHENYL)IMIDAZO[1,2-A]PYRIDINE-3-CARBOXAMIDE” (Novartis AG, priority 2019, published 2022)

Key:
Assay type in all cases: physicochemical
[1] = Evaluation of closed container thermal degradation (solid state, 1 week; HPLC, XRPD, color); conditions: tight container; for Bulk (XRPD): 50° C. and 80° C.
Protocol: 5-(5-((1R,2S)-2-fluorocyclopropyl)-1,2,4-oxadiazol-3-yl)-2-methylphenyl)imidazo[1,2-a]pyridine-3-carboxamide Form A (10 mg) was placed in a closed vial at 50° C. and 80° C. chamber for 1 week. The initial purity of (5-(5-((1R,2S)-2-fluorocyclopropyl)-1,2,4-oxadiazol-3-yl)-2-methylphenyl)imidazo[1,2-a]pyridine-3-carboxamide Form A was 99.7%.
(§1) The samples were examined by XRPD for physical stability determination and by HPLC for chemical stability determination indicated by the presence of degradation products (DP).
The HPLC method used is described in Example 13-1. The color (CL) of the samples was evaluated by visual observation.
(5-(5-((1R,2S)-2-fluorocyclopropyl)-1,2,4-oxadiazol-3-yl)-2-methylphenyl)imidazo[1,2-a]pyridine-3-carboxamide fumaric acid co-crystal (10 mg) was placed in a closed vial at 50° C. and 80° C. chamber for 1 week. The initial purity of (5-(5-((1R,2S)-2-fluorocyclopropyl)-1,2,4-oxadiazol-3-yl)-2-methylphenyl)imidazo[1,2-a]pyridine-3-carboxamide Fumaric acid co-crystal was 99.7%.
The HPLC method used is described in Example 19-1. The color (CL) of the samples was evaluated by visual observation.

[2] = Crystal modification after equilibration in water for 2 weeks (XRPD); conditions: after 2 weeks in water
Protocol: 5-(5-((1R,2S)-2-fluorocyclopropyl)-1,2,4-oxadiazol-3-yl)-2-methylphenyl)imidazo[1,2-a]pyrindine-3-carboxamide Form A (10 mg) was placed in a vial containing water for 2 weeks and the sample was then examined by XRPD for physical stability determination. It was observed that after 2 weeks in water 5-(5-((1R,2S)-2-fluorocyclopropyl)-1,2,4-oxadiazol-3-yl)-2-methylphenyl)imidazo[1,2-a]pyridine-3-carboxamide Form A converted to 5-(5-((1R,2S)-2-fluorocyclopropyl)-1,2,4-oxadiazol-3-yl)-2-methylphenyl)imidazo[1,2-a]pyridine-3-carboxamide Form HB.
5-(5-((1R,2S)-2-fluorocyclopropyl)-1,2,4-oxadiazol-3-yl)-2-methylphenyl)imidazo[1,2-a]pyrindine-3-carboxamide Fumaric acid co-crystal (10 mg) was placed in a vial containing water for 2 weeks and the sample was then examined by XRPD for physical stability determination. No change in XRPD was observed after 2 weeks in water.

[3] = Evaluation of Xenon light exposure (HPLC, XRPD, color); conditions: Xenon light (approx. 1200 kLuxh, 25° C.)
Protocol: (§2) 5-(5-((1R,2S)-2-fluorocyclopropyl)-1,2,4-oxadiazol-3-yl)-2-methylphenyl)imidazo[1,2-a]pyridine-3-carboxamide Form A (10 mg) was placed in a container and exposed to approximately 1200 kLuxh of Xenon light at 25° C. The sample was examined by XRPD for physical stability determination and by HPLC for chemical stability determination indicated by the presence of degradation products (DP). The HPLC method used is described in Example 13-1. The color (CL) of the samples was evaluated by visual observation.
as §2, with “Fumaric acid co-crystal” for “Form A”, “19-1.” for “13-1.”

[4] = Evaluation of the effect of grinding and granulation; conditions: Grinding and granulation with added water or ethanol
Protocol: 5-(5-((1R,2S)-2-fluorocyclopropyl)-1,2,4-oxadiazol-3-yl)-2-methylphenyl)imidazo[1,2-a]pyridine-3-carboxamide Form A (10 mg) was placed in a container and ground with added water or ethanol.
5-(5-((1R,2S)-2-fluorocyclopropyl)-1,2,4-oxadiazol-3-yl)-2-methylphenyl)imidazo[1,2-a]pyridine-3-carboxamide fumaric acid co-crystal (10 mg) was placed in a container and ground with added water or ethanol.

[5] = Water activity evaluation - crystal modification (water/ethanol, 2 weeks, XRPD)
Protocol: 5-(5-((1R,2S)-2-fluorocyclopropyl)-1,2,4-oxadiazol-3-yl)-2-methylphenyl)imidazo[1,2-a]pyrindine-3-carboxamide Form A (10 mg) was placed in a vials containing various ratios of water and ethanol and allowed to equilibrate for 2 weeks. The samples were then examined by XRPD for physical stability determination. The results are given below in Table 5 which show conversion to Form HA and Form HB occurs depending on the water activity. […]

[6] = Evaluation of humidity at elevated temperature (solid state, open vial, 75% RH, 1 week; HPLC, XRPD, color); conditions: for Bulk (XRPD): 50° C. and 80° C.
Protocol: (§3) (5-(5-((1R,2S)-2-fluorocyclopropyl)-1,2,4-oxadiazol-3-yl)-2-methylphenyl)imidazo[1,2-a]pyridine-3-carboxamide Form A (10 mg) was placed in an open vial in a 75% relative humidity (RH) chamber at 50° C. for one week and also in an open vial in a 75% relative humidity (RH) chamber at 80° C. for one week. The initial purity of (5-(5-((1R,2S)-2-fluorocyclopropyl)-1,2,4-oxadiazol-3-yl)-2-methylphenyl)imidazo[1,2-a]pyridine-3-carboxamide Form A was 99.7%.
as §1
The HPLC method used is […]
The color (CL) of the samples was evaluated by visual observation.
as §3, with “fumaric acid co-crystal” for “Form A”
The samples were examined by XRPD for physical stability determination and by HPLC for chemical stability determination indicated by the presence of degradation products (DP). The HPLC method used is […]

[7] = Water activity 0.000, Water/ethanol (v/v) 0.000/1.000, 2 weeks
[8] = Water activity 0.099, Water/ethanol (v/v) 0.013/0.987, 2 weeks

Structure (SMILES)	Bulk (XRPD) [1]	CL (color) ([1]; 50° C.)	DP (%) degradation products, Bulk (HPLC) ([1]; 50° C.)	CL (color) ([1]; 80° C.)	DP (%) degradation products, Bulk (HPLC) ([1]; 80° C.)	Crystal modification by XRPD [2]	Bulk (XRPD) [3]	CL (color) [3]	DP (%) degradation products, Bulk (HPLC) [3]	Change in solid state [4]	Modification (XRPD) [5, 7]	Modification (XRPD) [5, 8]	CL (color) ([6]; 50° C.)	DP (%) degradation products, Bulk (HPLC) ([6]; 50° C.)	Bulk (XRPD) [6]	CL (color) ([6]; 80° C.)	DP (%) degradation products, Bulk (HPLC) ([6]; 80° C.)	further results
Cc1ccc(-c2noc([C@H]3C[C@@H]3F)n2)cc1NC(=O)c1cnc2ccccn12 [Form A, N-(5-(5-((1R,2S)-2-fluorocyclopropyl)-1,2,4-oxadiazol-3-yl)-2-methylphenyl)imidazo[1,2-a]pyridine-3-carboxamide]	Bulk (XRPD): No change	No change	0.06%	No change	0.07%	Form HB	Bulk (XRPD): No change	No change	0.06%	no change in solid state	No change	No change	No change	0.06%	Bulk (XRPD): No change	No change	0.06%	–
Cc1ccc(-c2noc([C@H]3C[C@@H]3F)n2)cc1NC(=O)c1cnc2ccccn12 [fumaric acid co-crystal, N-(5-(5-((1R,2S)-2-fluorocyclopropyl)-1,2,4-oxadiazol-3-yl)-2-methylphenyl)imidazo[1,2-a]pyridine-3-carboxamide fumaric acid co-crystal]	Bulk (XRPD): No change	No change	0.15%	No change	0.08%	No change	Bulk (XRPD): No change	No change	0.10%	no change in solid state	No change	No change	No change	0.11%	Bulk (XRPD): No change	No change	0.09%	Modification (XRPD) ([5]; Water activity 0.205, Water/ethanol (v/v) 0.030/0.970, 2 weeks): No change; Modification (XRPD) ([5]; Water activity 0.298, Water/ethanol (v/v) 0.048/0.952, 2 weeks): No change; Modification (XRPD) ([5]; Water activity 0.398, Water/ethanol (v/v) 0.073/0.927, 2 weeks): No change; Modification (XRPD) ([5]; Water activity 0.502, Water/ethanol (v/v) 0.104/0.896, 2 weeks): No change; Modification (XRPD) ([5]; Water activity 0.605, Water/ethanol (v/v) 0.145/0.855, 2 weeks): No change; Modification (XRPD) ([5]; Water activity 0.700, Water/ethanol (v/v) 0.198/0.802, 2 weeks): No change; Modification (XRPD) ([5]; Water activity 0.802, Water/ethanol (v/v) 0.296/0.704, 2 weeks): No change; Modification (XRPD) ([5]; Water activity 0.900, Water/ethanol (v/v) 0.550/0.450, 2 weeks): No change; Modification (XRPD) ([5]; Water activity 1.000, Water/ethanol (v/v) 1.000/0.000, 2 weeks): No change
